Data taken from patent US20240368226A1, “Cyclic Cell Penetrating Peptides For Treating Neisseria Gonorrhoeae Infections” (priority 2023, published 2024).
Where a SMILES comes first, the peptide text is derived from it. Bridges are numbered along the chain shown (N, C = ends). [ ]: non-standard residue; d: D form. Ahx = NCCCCCC(=O)O

What was measured:
[1] = tested on: activated THP-1 monocytic cells; test: LDH release cytotoxicity, THP-1; format: cell-based, human; parameters: cytotoxicity, THP-1: unit of the concentration uncertain; details: for cytotoxicity, THP-1: 100 (unit uncertain)
Experimental: (§1) To determine whether the CPPs were cytotoxic for human cells, the relative amount of LDH released from immortalized End1/E6E7 endocervical cells, ME 180 cervical cells and THP-1 monocytic cells was measured following 18 h treatment (FIG. 9A-C). […] The cytotoxicity of the endogenous AMP LL-37 was analyzed as a comparator.
(§2) We analyzed the levels of lactate dehydrogenase (LDH) released from dying human End1/E6E7 epithelial endocervical cells1, ME-180 epithelial cervical2, and THP-1 monocytes due to cytotoxicity from exposure to the CPP structural analogs or LL-37 using the Cyquant LDH Cytotoxicity Assay Kit (Invitrogen ThermoFisher Scientific). The THP-1 cells were activated overnight by incubation with 10 ng/ml of phorbol myristate acetate (PMA; Sigma-Aldrich). After washing, cells were trypsinized, and then 1.0×10^4 cells in 100-μL media were plated per well in 96-well plates. For the activated THP-1 and ME-180 cells, Opti-MEM (Gibco) with 1% FBS was used. For the End1/E6E7 cells Keratinocyte-Scrum Free Media (ThermoFisher Scientific) with supplements was used. After plating, the activated THP-1 cells were incubated for 4-5 h and the End1/E6E7 and ME-180-cells were incubated overnight. Next stock solutions of the CPPs or LL-37 were diluted in PBS and aliquots were added to wells to create final concentrations of 100 and 200 μM of the CPPs, or 20 and 40 μM of LL-37 in total volumes of 100 μL per well. Negative control wells were treated with vehicle only, which was 1% DMSO in media. Vehicle controls for LL-37 were wells with Opti-MEM with 1% FBS only. After adding the test reagents, plates were gently mixed and incubated at 37° C. and 5% CO2 for 18 h. Positive control wells were treated with 10 μL of the Triton X-100 Lysis Buffer provided with the Cyquant kit according to the directions of the vendor. Then the levels of LDH in supernatants were quantified using a kit (Roche, Mannheim, DE, USA) with detection on an Epoch (Biotek Instruments, Winooski, Vermont, USA) microtiter plate reader at 490 nm with 680 nm subtracted. The results were reported as the percentage of LDH released from cells treated with LL-37 or CPP relative to LDH released from control cells treated with vehicle-only.

[2] = tested on: ME-180 cervical cells; test: LDH release cytotoxicity, ME-180; format: cell-based, human; parameters: cytotoxicity, ME-180: unit of the concentration uncertain
Experimental: as §1, §2

[3] = tested on: End1/E6E7 endocervical cells; test: LDH release cytotoxicity, End1/E6E7; format: cell-based, human; parameters: cytotoxicity, End1/E6E7: unit of the concentration uncertain
Experimental: as §1, §2

[4] = tested on: sheep red blood cells; format: cell-based
Experimental: In vitro assessment of hemolysis is important in determining the potential cytotoxicity of any material or drug that would be in contact with blood. Various protocols for determining hemolytic potential have been reported. A procedure recommended for analysis of the hemolytic potential of drug substances for RBCs using 0.1% Triton as the positive control and a 1 h incubation period was performed.
The CPPs or the vehicle (DMSO and 0.1% Triton X-100), were diluted in PBS. Washed pooled sheep red blood cells (sRBCs; Rockland, R405-0050, 10% v/v) were diluted to 2.1% in PBS. Then 190 μL of the cell suspension was added to the wells of a 96-well plate (Corning CellBIND). Solutions (10 μL) containing the linear or DE or TE cyclized forms of the CPP at 4,000 or 2,000 μM or the DMSO and PBS vehicle were added to wells with sRBCs in triplicate. As a positive control three wells were treated with 10 μL of 2% Triton X-100. The 96 well plates were incubated at 37° C. and 5% CO2 for 1 h, and then centrifugated at 1,000×g for 5 min. Supernatant (100 μL) was transferred to a new plate and then analyzed on the Epoch microtiter plate reader at 405-nm. Results are expressed as % hemolysis, which was calculated according to the following equation: % hemolysis=[(405 nm absorbance (Abs) of RBCs in the peptide solution-405 nm Abs in PBS)/(405 nm Abs in 0.1% Triton X-100-405 nm ABs in PBS]×100. Values of >25% hemolysis were defined as poor, 10-25% medium, and <10% as non-hemolytic according to recommended guidelines.

[5] = tested on: S. aureus strains 8325-4 and Newman; format: cell-based, Staphylococcus aureus
Experimental: The sensitivity of a Gram positive species was also tested.
N. flavescens strain 4322, N. lactamica strain 1934, and N. subflava strain 52, were available from the collections of the late Dr. Herman Schneider of the Walter Reed Army Institute of Research and of the Neisseria Repository that was formerly housed at UC Berkeley. The 8325-4 and Newman are strains of S. aureus. The latter is β-hemolytic.
S. aureus were grown overnight on Difco GC agar containing 1% BBL Isovitalex Enrichment. Using a sterile cotton swab, bacterial colonies were placed in suspension in GC broth containing 1% BBL Isovitalex. Absorbance of the bacterial suspension at 595 nm was determined to enable dilution to approximately 4×10^6 cells/mL in GC broth. Aliquots of the suspension containing 8×10^5 bacteria along with the CPPs, diluted from stock solutions in DMSO, were added in GC broth containing 1% BBL Isovitalex to make a total volume of 200 μL/well. Bacteria in GC broth with Isovitalex and 1% DMSO were added to vehicle-only control wells. […] After incubation in 5% CO2 at 37° C. for 18 h, plates were analyzed at 600-nm on an Epoch microtiter plate reader. The percentage inhibition of each sample was determined relative to the absorbance of the blank (GC broth only) and the vehicle-only controls. […] If no growth was observed on the plate, then that test concentration was determined to be inhibitory.

[6] = in vivo; cited from earlier work
[7] = tested on: invasion of ME-180 cells by FA1090 1-81-S2 gonococci; test: Invasion of human cervical epithelial cells by gonococci; format: cell-based; details: LL-37 20 μM; moi of 5; 4 h
Experimental: Because the CPP was bactericidal for N. gonorrhoeae and, furthermore, could penetrate the bacteria, it was postulated that treatment may prevent invasion of human epithelial cells. Therefore, the effect of the CPP on the invasion of a human cervical epithelial cell line, ME-180, was tested using the AMP LL-37 for comparison. FA1090 1-81-S2 gonococci at a moi of 5 were incubated with ME-180 cells in 96-well plates with vehicle only, LL-37 (20 μM), or the CPP (100 μM) for 4 h.

Q: Which results are given for `N=C(N)NCCC[C@@H]1NC(=O)CCCCCNC(=O)[C@H](CCCNC(=N)N)NC(=O)[C@H](CCCNC(=N)N)NC(=O)CCCCCNC(=O)[C@H](CCCNC(=N)N)NC(=O)[C@H](CCCNC(=N)N)NC(=O)CCCCCNC(=O)[C@H](CCCNC(=N)N)NC(=O)[C@H](CCCNC(=N)N)NC(=O)CCCCCNC(=O)[C@H](CCCNC(=N)N)NC(=O)[C@@H](N)CSSC[C@@H](C(N)=O)NC1=O` [DS cyclized CPP, CRXRRXRRXRRXRC—NH2] (H-CR[Ahx]RR[Ahx]RR[Ahx]RR[Ahx]RC-NH2; disulfide 1-14)?
A: cell death (LDH), THP-1 ([1]; 100 µM, 18 h): significantly increased; percentage of dead cells compared to the Triton X-100 treated controls, THP-1 ([1]; 100 and 200 mM): less than 20%; percentage of dead cells compared to the Triton X-100 treated controls, ME-180 ([2]; 100 and 200 mM): less than 20%; percentage of dead cells compared to the Triton X-100 treated controls, End1/E6E7 ([3]; 100 and 200 mM): less than 20%; hemolysis of sheep RBCs [4]: no hemolysis

Q: With `N=C(N)NCCC[C@@H]1NC(=O)CSC[C@@H](C(N)=O)NC(=O)[C@H](CCCNC(=N)N)NC(=O)CCCCCNC(=O)[C@H](CCCNC(=N)N)NC(=O)[C@H](CCCNC(=N)N)NC(=O)CCCCCNC(=O)[C@H](CCCNC(=N)N)NC(=O)[C@H](CCCNC(=N)N)NC(=O)CCCCCNC(=O)[C@H](CCCNC(=N)N)NC(=O)[C@H](CCCNC(=N)N)NC(=O)CCCCCNC1=O` [TE cyclized CPP, c [RXRRXRRXRRXRC(S—)]] ({CH2CO}-R[Ahx]RR[Ahx]RR[Ahx]RR[Ahx]RC-NH2; thioether N-13) as the molecule, how does the “MIC for S. aureus” value [5] read?
A: > 100 µM

Q: What about the “cytotoxicity compared to DS cyclized CPP, THP-1” value ([1]; 200 μM, 18 h) of the same molecule?
A: less cytotoxic compared to the DS cyclized CPP

Q: And the “cytotoxicity compared to linear CPP, THP-1” value ([1]; 200 μM, 18 h)?
A: more cytotoxic

Q: What about the “cytotoxicity, THP-1” value [1] of the same molecule?
A: virtually no cytotoxicity

Q: What about the “cytotoxicity compared to DS cyclized CPP, ME-180” value ([2]; 200 μM, 18 h) of the same molecule?
A: less cytotoxic compared to the DS cyclized CPP

Q: And the “cytotoxicity, ME-180” value ([2]; 100 (unit uncertain))?
A: virtually no cytotoxicity

Q: What about the “cytotoxicity compared to DS cyclized CPP, End1/E6E7” value ([3]; 200 μM, 18 h) of the same molecule?
A: less cytotoxic compared to the DS cyclized CPP

Q: And the “cytotoxicity compared to linear CPP, End1/E6E7” value ([3]; 200 μM, 18 h)?
A: less cytotoxic compared to the linear CPP

Q: And the “cytotoxicity, End1/E6E7” value ([3]; 100 (unit uncertain))?
A: virtually no cytotoxicity

Q: What about the “hemolysis of sheep RBCs” value [4] of the same molecule?
A: no hemolysis

Q: For `CC(=O)N[C@H](CSSC[C@H](N)C(=O)O)C(=O)N[C@H](C)C(=O)N[C@H](CCCNC(=N)N)C(=O)N[C@H](CCCNC(=N)N)C(=O)N[C@H](CCCNC(=N)N)C(=O)N[C@H](C)C(=O)N[C@H](CCCNC(=N)N)C(N)=O` [etelcalcetide], which effective half-life [6] is on record?
A: 72 to 96 h

Q: What does the source list for `N=C(N)NCCC[C@H](NC(=O)CCCCCNC(=O)[C@H](CCCNC(=N)N)NC(=O)[C@H](CCCNC(=N)N)NC(=O)CCCCCNC(=O)[C@H](CCCNC(=N)N)NC(=O)[C@H](CCCNC(=N)N)NC(=O)CCCCCNC(=O)[C@H](CCCNC(=N)N)NC(=O)[C@H](CCCNC(=N)N)NC(=O)CCCCCNC(=O)[C@@H](N)CCCNC(=N)N)C(=O)O` [linear CPP, RXRRXRRXRRXR, reference compound] (H-R[Ahx]RR[Ahx]RR[Ahx]RR[Ahx]R-OH)?
A: cytotoxicity, THP-1 [1]: virtually no cytotoxicity; cell death (LDH released), THP-1 ([1]; 100 or 200 μM, 18 h): not significantly increased; cytotoxicity, ME-180 ([2]; 100 (unit uncertain)): virtually no cytotoxicity; cytotoxicity, End1/E6E7 ([3]; 100 (unit uncertain)): virtually no cytotoxicity; hemolysis of sheep RBCs [4]: no hemolysis

Q: Which “levels of cell death compared to the vehicle-only control, THP-1” value ([1]; 20 or 40 μM LL-37, 18 h, p<0.001) does the source give for LL-37 [reference compound] here?
A: more than doubled

Q: And the “LDH levels, ME-180” value ([2]; LL-37 20 µM, 18 h)?
A: more than doubled

Q: And the “cytotoxicity, ME-180” value ([2]; LL-37 20 and 40 mM)?
A: significant cytotoxicity

Q: What about the “invasion of ME-180 cells” value [7] of the same molecule?
A: completely inhibited invasion

Q: And the “LDH levels, End1/E6E7” value ([3]; LL-37 20 µM, 18 h)?
A: more than doubled

Q: What about the “cytotoxicity, End1/E6E7” value ([3]; LL-37 20 and 40 mM) of the same molecule?
A: significant cytotoxicity
